Assay results reported in patent US10100001B2, “Adenylyl cyclase inhibitors for neuropathic and inflammatory pain” (Purdue Research Foundation, priority 2015, dated 2018).

Legend:
AC1 = biological target: T1, AC1 (Homo sapiens, UniProt Q08828); assay: Inhibition of A23187-mediated (Ca2+-stimulated) cAMP accumulation in HEK cells stably expressing AC1; assay type: cell-based; conditions: for inhibition at 4 µM / inhibition at 40 µM: HEK293, read-out: AC1 Inhibition Percentage; for inhibition at 4 µM: 4 μM compound; for inhibition at 40 µM: 40 μM compound; for IC50: HEK cells stably expressing AC1, inhibitors 30 min, then 3 μM A23187 with IBMX, average and S.E.M. of at least three independent experiments, read-out: IC50 for inhibition of the A23187-mediated cAMP response of AC1
T1 construct: expressed in transfected cells
T1 sequence (Q08828 whole entry): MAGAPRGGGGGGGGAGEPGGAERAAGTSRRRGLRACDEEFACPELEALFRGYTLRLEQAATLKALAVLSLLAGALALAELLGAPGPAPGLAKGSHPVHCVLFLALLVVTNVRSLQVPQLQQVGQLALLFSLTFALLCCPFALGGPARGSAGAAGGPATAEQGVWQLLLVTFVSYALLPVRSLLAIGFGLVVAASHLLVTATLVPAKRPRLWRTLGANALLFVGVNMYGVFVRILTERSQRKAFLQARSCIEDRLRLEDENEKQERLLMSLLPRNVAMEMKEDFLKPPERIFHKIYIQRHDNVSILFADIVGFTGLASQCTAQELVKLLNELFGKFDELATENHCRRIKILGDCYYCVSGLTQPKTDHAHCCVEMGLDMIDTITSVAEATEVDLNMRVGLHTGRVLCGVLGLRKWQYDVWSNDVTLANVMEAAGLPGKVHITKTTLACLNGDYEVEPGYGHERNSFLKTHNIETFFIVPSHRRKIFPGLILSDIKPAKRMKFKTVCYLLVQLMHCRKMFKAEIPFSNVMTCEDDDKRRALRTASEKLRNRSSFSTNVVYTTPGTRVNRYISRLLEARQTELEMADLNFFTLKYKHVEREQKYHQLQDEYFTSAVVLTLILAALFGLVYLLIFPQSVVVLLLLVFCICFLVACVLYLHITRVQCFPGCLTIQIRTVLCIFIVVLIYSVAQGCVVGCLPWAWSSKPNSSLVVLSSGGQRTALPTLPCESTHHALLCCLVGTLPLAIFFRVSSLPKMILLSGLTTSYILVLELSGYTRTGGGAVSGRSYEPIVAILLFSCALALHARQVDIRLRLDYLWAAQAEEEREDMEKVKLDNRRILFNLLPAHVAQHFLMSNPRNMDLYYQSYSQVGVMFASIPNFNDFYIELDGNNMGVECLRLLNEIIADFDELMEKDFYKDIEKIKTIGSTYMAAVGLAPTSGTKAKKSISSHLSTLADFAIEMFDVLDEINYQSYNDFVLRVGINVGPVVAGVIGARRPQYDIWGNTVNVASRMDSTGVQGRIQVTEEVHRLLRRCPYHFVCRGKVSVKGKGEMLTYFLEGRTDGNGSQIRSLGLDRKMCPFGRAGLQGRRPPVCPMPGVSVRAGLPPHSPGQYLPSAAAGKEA
Protocol: HEK cells stably expressing AC1 were treated with inhibitors for 30 min, and subsequently incubated with 3 μM A23187 in the presence of 2 mM IBMX. Data represent the average and S.E.M. of at least three independent experiments.
A23187 is a Ca2+ ionophore, which promotes Ca2+ binding to calmodulin in the cells and, subsequent stimulation of AC1.
HEK (human embryonic kidney) cells stably expressing human AC1, were cultured in Dubelcco's Modified Eagle Medium (Life Technologies, Grand Island, N.Y.) supplemented with 5% bovine calf serum (Hyclone, Logan, Utah), 5% fetal clone I (Hyclone, Logan, Utah), Antibiotic-Antimycotic (Life Technologies, Grand Island, N.Y.), and G418 (Invivogen, San Diego, Calif.). The cells were grown to confluency in 15 cm disses, harvested using Cell Dissociation Buffer (Life Technologies, Grand Island, N.Y.), and resuspended in 4 ml of fetal bovine serum (Hyclone, Logan, Utah) containing 10% dimethyl sulfoxide (Sigma-Aldrich, St. Louis, Mo.). 1 ml of cell suspension was added to cryovials that were incubated overnight at −80° C. in a CoolCell device (BioCision, Larkspur, Calif.) for cryopreservation. On the following day, cryovials were stored in liquid N2 until the assay day.
Cryopreserved HEK-AC1 cells were thawed in a 37° C. water-bath, resuspended in 10 ml optiMEM (Life Technologies, Grand Island, N.Y.) and centrifuged at 500×g for 5 min. The cells were resuspended in 10 ml optiMEM and the centrifugation step was repeated. Cells were then resuspended in 1 ml optiMEM and counted using a Countess automated cell counter (Life Technologies, Grand Island, N.Y.). Cells were added to a white, flat bottom, low-volume, tissue culture-treated 384 well plate (PerkinElmer, Shelton, Conn.) at a final density of 2500 cells/well. The plate was centrifuged for 1 min at 100×g and incubated in a 37° C. humidified incubator for 1 h. […] Following this incubation A23187 (Sigma-Aldrich, St. Louis, Mo.) (3 μM final concentration) containing 3-isobutyl-1-methylxanthine (Sigma-Aldrich, St. Louis, Mo.) (0.5 mM final concentration) was added. The plate was centrifuged for 1 min at 100×g and incubated at room temperature for 1 h. Cyclic AMP accumulation was measured using Cisbio's dynamic 2 kit (Cisbio Bioassays, Bedford, Mass.) according to the manufacturer's instructions. Plates were analyzed for fluorescent emissions at 620 nm and 665 nm using 330 nm as the excitation wavelength in a Cytation 3 Cell Imaging Multi-Mode Reader (Biotek, Winooski, Vt.), and ratiometric analysis was carried out by dividing the 665 nm emissions by the 620 nm emissions to extrapolate the cAMP concentrations from a cAMP standard curve. The data represent the average of at least three independent experiments ran in duplicate.

[1] = tested on: neuroinflammatory and neuropathic pain rodent models; conditions: cited from earlier work

Row | SMILES | inhibition at 4 µM (AC1) | inhibition at 40 µM (AC1) | IC50 (AC1) | analgesic effects [1]
1 | COC(=O)CCCN(C/C=C/c1ccc(Cl)cc1)Cc1ccc(F)cc1 [Compound 7gc, (E)-methyl 4-((3-(4-chlorophenyl)allyl)(4-fluorobenzyl)amino)butanoate] | -24% | 70% | – | –
2 | CCOC(=O)c1ccc(/C=C/CN(CCCC(=O)OC)Cc2ccc(F)cc2)cc1 [Compound 7gd, (E)-ethyl 4-(3-((4-fluorobenzyl)(4-methoxy-4-oxobutyl)amino)prop-1-enyl)benzoate] | -24% | 71% | – | –
3 | Cc1ccc(S(=O)(=O)N2CCCN(C/C=C/c3ccccc3)CC2)cc1 [Compound 7ha, 1-cinnamyl-4-tosyl-1,4-diazepane] | 6% | 73% | – | –
4 | Cc1ccc(/C=C/CN2CCCN(S(=O)(=O)c3ccc(C)cc3)CC2)cc1 [Compound 7hb, (E)-1-(3-p-tolylallyl)-4-tosyl-1,4-diazepane] | -26% | 27% | – | –
5 | COc1ccc2c(c1)C(c1ccccc1)CN(C/C=C/c1ccc(F)cc1)CC2 (stereo not drawn) [Compound 7jd, (E)-3-(3-(4-fluorophenyl)allyl)-8-methoxy-1-phenyl-2,3,4,5-tetrahydro-1H-benzo[d]azepine] | 49% | 91% | 14.8 µM | –
6 | Nc1ncnc2c1ncn2CCNCCCCCO [NB001] | – | – | – | analgesic effects

Second part, led by results:

Row | inhibition at 4 µM (AC1) | inhibition at 40 µM (AC1) | IC50 (AC1) | SMILES | analgesic effects [1]
7 | -5.5% | 85% | – | Cc1ccc(S(=O)(=O)N2CCCN(C/C=C/c3ccc(Cl)cc3)CC2)cc1 [Compound 7hc, (E)-1-(3-(4-chlorophenyl)allyl)-4-tosyl-1,4-diazepane] | –
8 | 72% | 95% | – | COc1ccc2c(c1)C(c1ccccc1)CN(CC=Cc1ccccc1)CC2 (stereo not drawn) [Compound 7ja, 3-cinnamyl-8-methoxy-1-phenyl-2,3,4,5-tetrahydro-1H-benzo[d]azepine] | –
9 | 43% | 90% | 16.7 µM | COc1ccc2c(c1)C(c1ccccc1)CN(C/C=C/c1ccc(C)cc1)CC2 (stereo not drawn) [Compound 7jb, (E)-8-methoxy-1-phenyl-3-(3-p-tolylallyl)-2,3,4,5-tetrahydro-1H-benzo[d]azepine] | –
10 | -3% | 51% | – | COc1ccc2c(c1)C(c1ccccc1)CN(C/C=C/c1ccc(I)cc1)CC2 (stereo not drawn) [Compound 7jc, (E)-3-(3-(4-iodophenyl)allyl)-8-methoxy-1-phenyl-2,3,4,5-tetrahydro-1H-benzo[d]azepine] | –
11 | 33% | 78% | 9.1 µM | COc1ccc2c(c1)C(c1ccccc1)CN(C/C=C/c1ccc(Cl)cc1)CC2 (stereo not drawn) [Compound 7je, (E)-3-(3-(4-chlorophenyl)allyl)-8-methoxy-1-phenyl-2,3,4,5-tetrahydro-1H-benzo[d]azepine] | –
12 | 17% | 88% | – | COc1ccc2c(c1)C(c1ccccc1)CN(C/C=C/c1ccc(C(F)(F)F)cc1)CC2 (stereo not drawn) [Compound 7jf, (E)-8-methoxy-1-phenyl-3-(3-(4-(trifluoromethyl)phenyl)allyl)-2,3,4,5-tetrahydro-1H-benzo[d]azepine] | –
13 | 8% | 11% | – | COc1ccc2c(c1)C(c1ccc(Br)cc1)CN(C/C=C/c1ccc(C)cc1)CC2 (stereo not drawn) [Compound 7kb, (E)-1-(4-bromophenyl)-8-methoxy-3-(3-p-tolylallyl)-2,3,4,5-tetrahydro-1H-benzo[d]azepine] | –
14 | 32% | 32% | – | COc1ccc2c(c1)C(c1ccc(Br)cc1)CN(C/C=C/c1ccc(Cl)cc1)CC2 (stereo not drawn) [Compound 7kc, (E)-1-(4-bromophenyl)-3-(3-(4-chlorophenyl)allyl)-8-methoxy-2,3,4,5-tetrahydro-1H-benzo[d]azepine] | –
